From PubChem BioAssay (NCI)
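Protocol summary: plate cells (96-well), add compound at 5 concentrations, incubate 48 h, interpolate endpoints linearly. Here, GI50 denotes the concentration required for 50% inhibition of growth. TGI: total growth inhibition.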

How the values were obtained:
Assay in all cases: growth of human tumour cells (NCI), 48 h
UACC-257 melanoma = test system: UACC-257 melanoma
HT29 colon = test system: HT29 colon
MALME-3M melanoma = test system: MALME-3M melanoma
HCC-2998 colon = test system: HCC-2998 colon
OVCAR-4 ovarian = test system: OVCAR-4 ovarian
SF-539 CNS = test system: SF-539 CNS
DU-145 prostate = test system: DU-145 prostate
SNB-19 CNS = test system: SNB-19 CNS
M14 melanoma = test system: M14 melanoma
BT-549 breast = test system: BT-549 breast
T-47D breast = test system: T-47D breast
SNB-75 CNS = test system: SNB-75 CNS
LOX IMVI melanoma = test system: LOX IMVI melanoma
SK-MEL-2 melanoma = test system: SK-MEL-2 melanoma
786-0 renal = test system: 786-0 renal
MDA-MB-231 breast = test system: MDA-MB-231 breast
SK-MEL-28 melanoma = test system: SK-MEL-28 melanoma
UO-31 renal = test system: UO-31 renal
SF-295 CNS = test system: SF-295 CNS
IGROV1 ovarian = test system: IGROV1 ovarian
OVCAR-8 ovarian = test system: OVCAR-8 ovarian
EKVX NSCLC = test system: EKVX NSCLC
MOLT-4 leukemia = test system: MOLT-4 leukemia
CAKI-1 renal = test system: CAKI-1 renal
NCI/ADR-RES ovarian = test system: NCI/ADR-RES ovarian
ACHN renal = test system: ACHN renal
HCT-116 colon = test system: HCT-116 colon
SR leukemia = test system: SR leukemia
NCI-H23 lung = test system: NCI-H23 lung
SW-620 colon = test system: SW-620 colon
HOP-62 NSCLC = test system: HOP-62 NSCLC
A498 renal = test system: A498 renal
A549 NSCLC = test system: A549 NSCLC
UACC-62 melanoma = test system: UACC-62 melanoma
SK-MEL-5 melanoma = test system: SK-MEL-5 melanoma
CCRF-CEM leukemia = test system: CCRF-CEM leukemia
OVCAR-5 ovarian = test system: OVCAR-5 ovarian
OVCAR-3 ovarian = test system: OVCAR-3 ovarian
HS 578T breast = test system: HS 578T breast
SF-268 CNS = test system: SF-268 CNS
HOP-92 NSCLC = test system: HOP-92 NSCLC
RXF 393 renal = test system: RXF 393 renal
K-562 leukemia = test system: K-562 leukemia
MCF7 breast = test system: MCF7 breast
U251 CNS = test system: U251 CNS
KM12 colon = test system: KM12 colon
SN12C renal = test system: SN12C renal
SK-OV-3 ovarian = test system: SK-OV-3 ovarian
NCI-H522 lung = test system: NCI-H522 lung
NCI-H460 lung = test system: NCI-H460 lung
MDA-MB-435 = test system: MDA-MB-435
RPMI-8226 leukemia = test system: RPMI-8226 leukemia
PC-3 prostate = test system: PC-3 prostate
NCI-H226 lung = test system: NCI-H226 lung
HCT-15 colon = test system: HCT-15 colon
HL-60(TB) leukemia = test system: HL-60(TB) leukemia
TK-10 renal = test system: TK-10 renal
COLO 205 colon = test system: COLO 205 colon

Compound: COc1ccc2c(c1)C(=O)c1c-2c(OCCN2CCCCC2)nc2ccc(OC)cc12
- GI50 (UACC-257 melanoma): 2070 nM
- TGI (UACC-257 melanoma): 6.9 µM
- GI50 (HT29 colon): 435 nM
- TGI (HT29 colon): 2700 nM
- GI50 (MALME-3M melanoma): 1270 nM
- TGI (MALME-3M melanoma): 4.47 µM
- GI50 (HCC-2998 colon): 1230 nM
- TGI (HCC-2998 colon): 9.24 µM
- GI50 (OVCAR-4 ovarian): 1360 nM
- TGI (OVCAR-4 ovarian): 10.7 µM
- GI50 (SF-539 CNS): 693 nM
- TGI (SF-539 CNS): 12.4 µM
- GI50 (DU-145 prostate): 519 nM
- TGI (DU-145 prostate): 2190 nM
- GI50 (SNB-19 CNS): 660 nM
- TGI (SNB-19 CNS): 15.1 µM
- GI50 (M14 melanoma): 904 nM
- TGI (M14 melanoma): 6.87 µM
- GI50 (BT-549 breast): 8.26 µM
- TGI (BT-549 breast): 23.3 µM
- GI50 (T-47D breast): 3.44 µM
- TGI (T-47D breast): 25.8 µM
- GI50 (SNB-75 CNS): 1270 nM
- TGI (SNB-75 CNS): 11.2 µM
- GI50 (LOX IMVI melanoma): 420 nM
- TGI (LOX IMVI melanoma): 1730 nM
- GI50 (SK-MEL-2 melanoma): 12.4 µM
- TGI (SK-MEL-2 melanoma): 28.6 µM
- GI50 (786-0 renal): 1040 nM
- TGI (786-0 renal): 2590 nM
- GI50 (MDA-MB-231 breast): 2710 nM
- TGI (MDA-MB-231 breast): 15.3 µM
- GI50 (SK-MEL-28 melanoma): 3.52 µM
- TGI (SK-MEL-28 melanoma): 12.8 µM
- GI50 (UO-31 renal): 259 nM
- TGI (UO-31 renal): 1670 nM
- GI50 (SF-295 CNS): 529 nM
- TGI (SF-295 CNS): 15.2 µM
- GI50 (IGROV1 ovarian): 708 nM
- TGI (IGROV1 ovarian): 6.58 µM
- GI50 (OVCAR-8 ovarian): 601 nM
- TGI (OVCAR-8 ovarian): 4.67 µM
- GI50 (EKVX NSCLC): 1000 nM
- TGI (EKVX NSCLC): 4.12 µM
- GI50 (MOLT-4 leukemia): 305 nM
- TGI (MOLT-4 leukemia): 1810 nM
- GI50 (CAKI-1 renal): 342 nM
- TGI (CAKI-1 renal): 2960 nM
- GI50 (NCI/ADR-RES ovarian): 761 nM
- TGI (NCI/ADR-RES ovarian): 10.3 µM
- GI50 (ACHN renal): 425 nM
- TGI (ACHN renal): 3.26 µM
- GI50 (HCT-116 colon): 393 nM
- TGI (HCT-116 colon): 1640 nM
- GI50 (SR leukemia): 235 nM
- TGI (SR leukemia): 1250 nM
- GI50 (NCI-H23 lung): 1120 nM
- TGI (NCI-H23 lung): 7.68 µM
- GI50 (SW-620 colon): 269 nM
- TGI (SW-620 colon): 2190 nM
- GI50 (HOP-62 NSCLC): 595 nM
- TGI (HOP-62 NSCLC): 11.2 µM
- GI50 (A498 renal): 1040 nM
- TGI (A498 renal): 4.73 µM
- GI50 (A549 NSCLC): 674 nM
- TGI (A549 NSCLC): 2160 nM
- GI50 (UACC-62 melanoma): 1350 nM
- TGI (UACC-62 melanoma): 6.3 µM
- GI50 (SK-MEL-5 melanoma): 1920 nM
- TGI (SK-MEL-5 melanoma): 5.61 µM
- GI50 (CCRF-CEM leukemia): 197 nM
- TGI (CCRF-CEM leukemia): 2660 nM
- GI50 (OVCAR-5 ovarian): 3.74 µM
- TGI (OVCAR-5 ovarian): 19.7 µM
- GI50 (OVCAR-3 ovarian): 892 nM
- TGI (OVCAR-3 ovarian): 2670 nM
- GI50 (HS 578T breast): 4.5 µM
- TGI (HS 578T breast): 22.8 µM
- GI50 (SF-268 CNS): 461 nM
- TGI (SF-268 CNS): 9.46 µM
- GI50 (HOP-92 NSCLC): 2410 nM
- TGI (HOP-92 NSCLC): 19.7 µM
- GI50 (RXF 393 renal): 1900 nM
- TGI (RXF 393 renal): 11 µM
- GI50 (K-562 leukemia): 413 nM
- TGI (K-562 leukemia): 2760 nM
- GI50 (MCF7 breast): 275 nM
- TGI (MCF7 breast): 2050 nM
- GI50 (U251 CNS): 513 nM
- TGI (U251 CNS): 1790 nM
- GI50 (KM12 colon): 585 nM
- TGI (KM12 colon): 2100 nM
- GI50 (SN12C renal): 429 nM
- TGI (SN12C renal): 10.1 µM
- GI50 (SK-OV-3 ovarian): 2020 nM
- TGI (SK-OV-3 ovarian): 16.4 µM
- GI50 (NCI-H522 lung): 523 nM
- TGI (NCI-H522 lung): 2110 nM
- GI50 (NCI-H460 lung): 286 nM
- TGI (NCI-H460 lung): 1100 nM
- GI50 (MDA-MB-435): 648 nM
- TGI (MDA-MB-435): 2280 nM
- GI50 (RPMI-8226 leukemia): 474 nM
- TGI (RPMI-8226 leukemia): 2670 nM
- GI50 (PC-3 prostate): 2330 nM
- TGI (PC-3 prostate): 21.3 µM
- GI50 (NCI-H226 lung): 705 nM
- TGI (NCI-H226 lung): 2820 nM
- GI50 (HCT-15 colon): 540 nM
- TGI (HCT-15 colon): 2630 nM
- GI50 (HL-60(TB) leukemia): 1080 nM
- TGI (HL-60(TB) leukemia): 6.64 µM
- GI50 (TK-10 renal): 4.51 µM
- TGI (TK-10 renal): 16.7 µM
- GI50 (COLO 205 colon): 723 nM
- TGI (COLO 205 colon): 11.1 µM
